Reference: patent US20250221409A1, “COMPOSITION FOR POTENTIATING EFFECTS OF USEFUL SUBSTANCE” (KANEKA CORPORATION, priority 2022, published 2025)

Tested on: soybean leaves
Assay: Promotion of herbicide (PQ) effects: SPAD values of soybean leaves after spraying test solutions
Assay type: in vivo, soybean (variety Fukuyutaka)
Conditions: Experimental Example 2-1 (FIG. 4); PQ 0.001 mass %, surfactin 0.001 mass %, lecithin 0.0005 mass %; 3 days after application
Description: Culture soil was filled into 9-cm vinyl pots, and soybean seeds (the variety: Fukuyutaka) were seeded at 3 grains/pot. Cultivation was performed in a glass greenhouse, and, after germination, strains were thinned to retain a strain in a pot. The test solutions shown in Table 4 were sprayed on leaves 3 seeks after seeding. The test solutions were prepared by dissolving the components in water. The SPAD (soil and plant analyzer development) values of the leaves were measured using a chlorophyll meter (product name: SPAD-502Plus, Konica Minolta, Inc.) 3 days after application of the test solutions. The SPAD values are used as the indicators showing the chlorophyll amount of plants.
Culture soil was filled into 9-cm vinyl pots, and soybean seeds (the variety: Fukuyutaka) were seeded at 3 grains/pot. Cultivation was performed in a glass greenhouse, and, after germination, strains were thinned to retain a strain in a pot. The test solutions shown in Table 5 were sprayed on leaves 3 seeks after seeding. The test solutions were prepared by dissolving the components in water. When lecithin was to be added, at the outset, lecithin was dissolved in water, and a biosurfactant was added to reach a given concentration. The SPAD values of the leaves were measured using a chlorophyll meter 3 days after application of the test solutions.

Compound: C[n+]1ccc(-c2cc[n+](C)cc2)cc1 [PQ, paraquat dichloride]
- SPAD values of the leaves: not substantially different from the SPAD values of the control
